From US20190147975A1, “SF3B1 SUPPRESSION AS A THERAPY FOR TUMORS HARBORING SF3B1 COPY LOSS” (DANA-FARBER CANCER INSTITUTE, INC., priority 2016, published 2019) come the findings set out here.

Series [1] deals with SF3B1. The series is described as follows: Immunoblot of SF3B1 expression in Cal51 cells treated with DUB inhibitors. The conditions noted are these: treated for 4 or 24 hours. Format: cell-based, human. The protocol: FIG. 37 is an immunoblot showing SF3B1 expression in Cal51 cells treated with de-ubiquitinase (DUB) inhibitors (“PR-619”, “b-AP15”, “SJB3-019A”) for 4 or 24 hours. For all figures, *p<0.05, **p<0.01, ***p<0.001 unless otherwise indicated, and error bars represent +/−standard deviation.
In addition to SF3B1 RNA interference and SF3B inhibition, SF3B1 suppression can be exerted by deubiquitinase (DUB) inhibition. […] Therefore, DUB inhibitors may be capable of killing SF3B1^loss cells specifically.
For denaturing protein immunoblots, cells were washed in ice cold PBS and lysed in 1× RIPA buffer (10 mM Tris-Cl Ph 8.0, 1 mM EDTA, 1% Triton X-100, 0.1% SDS and 140 mM NaCl) supplemented with lx protease and phosphatase inhibitor cocktail (PI-290, Boston Bioproducts). Lysates were sonicated in a bioruptor (Diagenode) for 5 minutes (medium intensity) and cleared by centrifugation at 15000×g for 15 min at 4 C. Proteins were electrophoresed on polyacrylamide gradient gels (Life Technologies) and detected by chemiluminescence. For native western blotting, cells were washed in ice cold PBS and lysed in 1× sonication buffer (10% Glycerol, 25 mM HEPES pH 7.4, 10 mM MgCl2) supplemented with protease and phosphatase inhibitors. Coomassie blue native PAGE western blots were run according the manufacturer's instructions (Life Technologies).
For orientation: A western blot detects proteins with antibodies after separation by electrophoresis.

For series [2], the system named is Hs578T, Cal51 cells. The series is described as follows: Drug sensitivity curves for splicing inhibitors in cells without and with SF3B1 suppression. Format: cell-based, human. An excerpt: FIG. 26A is a series of graphs showing drug sensitivity curves for indicated splicing inhibitors (“NSC-95397”, “pladienolide B”, “spliceostatin A”) in cells (“Hs578T”, “Cal51”) without and with SF3B1 suppression.

For series [3], the system named is CRISPR^frameshift-loss xenografts. The series is described as follows: Xenograft growth with doxycycline-induced SF3B1 suppression. The conditions noted are these: doxycycline-induced shRNA, p=0.001. Format: in vivo, nude mice. An excerpt: (§1) To test the effects of SF3B1 suppression in vivo, xenografts were generated using luciferase-labeled cell lines from the CRISPR^frameshift-loss and CRISPR^neutral#1 cells containing TR-shSF3B1#3. Animals were placed on doxycycline upon detection of palpable tumors. CRISPR^frameshift-loss and CRISPR^neutral#1 cells generated tumors of similar volume in the absence of doxycycline (FIG. 34; p=0.7, repeated measures ANOVA).
All animal husbandry was done with the approval of the Dana-Farber Cancer Institute IACUC. 1×10^6 CRISPR^neutral#1 or CRISPR^frameshift-loss cells expressing TR-shSF3B1 #3 were subcutaneously injected into opposing flanks of nude mice (Foxn1 nu/nu, Harlan). Animals were randomized to control group or doxycycline treatment after detection of a palpable tumor on either flank. Mice in the doxycycline treatment arm were continuously fed a doxycycline diet (2,000 ppm). Mice were sacrificed at the end of the experiment, or when endpoints were reached based on failure to thrive according to IACUC recommendation. […]
A custom image analysis pipeline was used to systematically quantify Ki67+ cells from tumor xenografts using CellProfilier. A minimum of 3 tumors per group, totaling at least 2,440 nuclei per tumor, was used to quantify the ratio of Ki67+ cells. At least 5 individual and random microscopic images from each tumor were analyzed.

The test system of series [4] is SF3B1^loss HCC1954 xenografts. In words: Growth of established xenograft tumors without or with doxycycline. Format: in vivo. The conditions noted are these: with doxycycline vs without.
Text: FIG. 36B is a graph showing growth of established tumors for HCC1954 xenografts without doxycycline (“−Dox”, n=13) or with doxycycline (“+Dox”, n=12) using TR-shSF3B1 #3. ***p≤0.001.
as §1

Series [5] has as its system SF3B1^neutral Cal51 xenografts. The description is as above. As to conditions: with doxycycline vs without. The class given is in vivo.
Text: FIG. 36A is a graph showing growth of established tumors for Cal51 xenografts without doxycycline (“−Dox”, n=13) or with doxycycline (“+Dox”, n=12) using TR-shSF3B1 #3.
as §1

As to `O=C1c2ccccc2C(=O)c2oc(-c3cccnc3)nc21` [SJB3-019A], in series [1], the SF3B1 expression entry was “significant decrease”.
Turning to `O=C1C(SCCO)=C(SCCO)C(=O)c2ccccc21` [NSC95397], in series [2] (cells with SF3B1 copy-loss or suppression), the “increased effects on cells with SF3B1 copy-loss or suppression” value is “failed to exhibit increased effects”.
Consider `C=CC(=O)N1C/C(=C\c2ccc([N+](=O)[O-])cc2)C(=O)/C(=C/c2ccc([N+](=O)[O-])cc2)C1` [b-AP15], for which the SF3B1 expression result in series [1] is on record as “significant decrease”.
As for `CO[C@]1(C)C[C@@]2(CO2)[C@H](O)[C@@H](/C=C/C(C)=C/C[C@@H]2O[C@H](C)[C@H](NC(=O)/C=C\[C@H](C)OC(C)=O)C[C@@H]2C)O1` [Spliceostatin A], the cell death result in series [2] (Hs578T breast cancer cells, when suppression of SF3B1 expression is induced) is “increased cell death”.
In the case of `N#CSc1cc(SC#N)c(N)nc1N` [PR-619], the SF3B1 expression entry in series [1] is listed as “significant decrease”.

B1: TR-shSF3B1#3: doxycycline-inducible shRNA targeting SF3B1 in pLKO-Tet-puro, SEQ ID NO: 12/13 (nucleic acid)
sense: CCGGCAACTCCTTATGGTATCGAATCTCGAGATTCGATACCATAAGGAGTTGTTTTTG
antisense: AATTCAAAAACAACTCCTTATGGTATCGAATCTCGAGATTCGATACCATAAGGAGTTG
Turning to B1, the “number of proliferative Ki67+ cells” value in series [3] (Ki67 immunohistochemistry) is “reduced”. Further, the growth of tumor result in series [3] (luminescent quantification) was “reduced the growth of tumor”. The tumor growth entry in series [4] is on record as “reduced tumor growth was observed”; in series [5], “not in SF3B1^neutral Cal51 xenografts”.
